Reference: ChEMBL document CHEMBL1201862, “PubChem BioAssay data set” (2004)
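Assay format: 96-well plates, 48-hour exposure. The concentration for 50% growth inhibition is given as GI50.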 Activity calls are given as the source filed them. Cut-off read from the data, not from the text of the source: active = GI50 up to about 1.1 µM and inactive = higher.

How the values were obtained:
Assay in all cases: growth of human tumour cells (NCI), 48 h
[1] = system: A498
[2] = system: CAKI-1
[3] = system: COLO 205
[4] = system: DLD-1
[5] = system: EKVX
[6] = system: HCT-116
[7] = system: HCT-15
[8] = system: HT-29
[9] = system: K562
[10] = system: M19-MEL
[11] = system: NCI-H522
[12] = system: RXF 393
[13] = system: SF-268
[14] = system: SK-MEL-5
[15] = system: UO-31
[16] = system: HOP-62
[17] = system: NCI-H226
[18] = system: SNB-75

Measured: GI50

COc1cc(/C=C2/C(=O)N(C(=O)c3ccc(Cl)cc3)N=C2C)cc(OC)c1OC
> 100 µM: [7]
inactive: [1] > 100 µM | [2] > 100 µM | [3] > 100 µM | [4] > 100 µM | [5] > 100 µM | [6] > 100 µM | [8] > 100 µM | [9] > 100 µM | [10] > 100 µM | [11] > 100 µM | [12] > 100 µM | [13] > 100 µM | [14] > 100 µM | [15] > 100 µM

COc1cc(/C=C(\C)c2ccc3c(c2)OCO3)cc(OC)c1OC
26.1 µM: [7]
inactive: [1] 17.6 µM | [3] 18.5 µM | [4] 18.5 µM | [5] 10.4 µM | [6] 31.8 µM | [16] 70 µM | [8] 25.7 µM | [9] 10.4 µM | [10] 31.4 µM | [17] 33.7 µM | [11] 20.2 µM | [12] 34.1 µM | [13] 26.9 µM | [14] 11.7 µM | [18] 5 µM | [15] 27.3 µM

COC1=C(N)C(=O)c2nc(C)ccc2C1=O
active: [10] 0.308 µM | [17] 1.04 µM
inactive: [1] 1.89 µM | [2] 8.3 µM | [3] 1.79 µM | [4] 2.31 µM | [5] 2.77 µM | [6] 1.94 µM | [16] 1.57 µM | [8] 1.98 µM | [11] 1.74 µM | [12] 1.67 µM | [13] 2.11 µM | [14] 1.7 µM | [18] 2.03 µM | [15] 2.17 µM
1.92 µM: [7]

CCc1cccc(C)c1NC(=O)CC1C(=O)Nc2ccccc2S1(=O)=O (stereo not given)
12 µM: [7]
inactive: [1] 21 µM | [2] 14.2 µM | [4] 15.8 µM | [5] 15.5 µM | [6] 15.8 µM | [8] 19.7 µM | [9] 2.92 µM | [10] 15.5 µM | [17] 33 µM | [11] 15.8 µM | [12] 15.1 µM | [13] 20.8 µM | [14] 13.7 µM | [18] 16 µM | [15] 13.5 µM

COC(=O)CCC(NC(=S)N/N=C(\C)c1cccs1)C(=O)OC (stereo not given)
> 100 µM: [7]
inactive: [1] > 100 µM | [3] > 100 µM | [4] > 100 µM | [5] > 100 µM | [6] > 100 µM | [16] > 100 µM | [8] > 100 µM | [9] > 100 µM | [10] > 100 µM | [17] > 100 µM | [11] > 100 µM | [12] > 100 µM | [13] > 100 µM | [14] > 100 µM | [18] > 100 µM | [15] > 100 µM

Cc1nc2ccccc2c(=O)n1/N=C(\N=N\c1ccccc1Cl)c1ccccc1Cl
inactive: [1] 43 µM | [2] 29.4 µM | [3] > 100 µM | [4] 67.5 µM | [5] 28.8 µM | [6] 36.4 µM | [16] 34.8 µM | [8] 53.6 µM | [9] 37.3 µM | [10] > 100 µM | [11] 22.9 µM | [12] 17.9 µM | [13] 35.1 µM | [14] 63.1 µM | [15] 36.1 µM
57.1 µM: [7]

CC(C)(O)[C@H](CCO)O[Si](c1ccccc1)(c1ccccc1)C(C)(C)C
inactive: [1] 16.5 µM | [3] 14.4 µM | [4] 8.93 µM | [5] 14.2 µM | [6] 4.9 µM | [8] 11.1 µM | [9] 7.74 µM | [10] 14.9 µM | [11] 6.67 µM | [13] 10.5 µM | [14] 14.2 µM | [18] 10.9 µM | [15] 11 µM
8.22 µM: [7]

NNc1nnc(-c2ccccc2)nc1Cc1ccccc1
inactive: [2] 13.8 µM | [3] 7.53 µM | [4] 13.4 µM | [5] 22.3 µM | [6] 7.18 µM | [16] 2.69 µM | [8] 8.3 µM | [9] 5.65 µM | [10] 7.41 µM | [17] 2.37 µM | [11] 5.4 µM | [12] 5.53 µM | [13] 3.64 µM | [14] 12.3 µM | [15] 3.81 µM
4.13 µM: [7]

O=c1c2ccccc2nc(-c2ccccc2)n1NC(=S)Nc1ccccc1
inactive: [1] > 100 µM | [2] > 100 µM | [3] > 100 µM | [4] > 100 µM | [6] > 100 µM | [16] > 100 µM | [8] > 100 µM | [9] > 100 µM | [10] 94.4 µM | [17] > 100 µM | [11] > 100 µM | [12] > 100 µM | [13] > 100 µM | [14] 89.1 µM | [18] 38.3 µM | [15] 81.7 µM
> 100 µM: [7]

Cc1cc2oc(-c3ccccc3)c(C)c(=O)c2c2c1OC(C)(C)S2
inactive: [3] 61.2 µM | [4] 99.1 µM | [5] > 100 µM | [6] 71 µM | [16] > 100 µM | [8] 34.2 µM | [9] 30.9 µM | [10] > 100 µM | [17] > 100 µM | [11] 72.3 µM | [12] 70.3 µM | [13] > 100 µM | [14] 68.7 µM | [18] > 100 µM | [15] > 100 µM
> 100 µM: [7]

COc1ccc(Nc2nc(C#N)c(N)s2)cc1
15.8 µM: [7]
inactive: [2] 24.6 µM | [3] 35.9 µM | [4] 48.6 µM | [6] 33 µM | [16] 46.8 µM | [8] 46.8 µM | [9] 24.5 µM | [17] > 100 µM | [11] 22.8 µM | [13] 19.9 µM | [18] > 100 µM | [15] 40.8 µM

OC12c3ccccc3C1CCCCCCCCCC21OCCO1 (stereo not given)
inactive: [1] > 100 µM | [2] > 100 µM | [3] > 100 µM | [6] > 100 µM | [16] > 100 µM | [8] > 100 µM | [9] > 100 µM | [10] > 100 µM | [17] > 100 µM | [11] > 100 µM | [12] > 100 µM | [13] > 100 µM | [14] > 100 µM | [18] > 100 µM | [15] > 100 µM
> 100 µM: [7]

CCOC(=O)C(C(=O)OCC)P(=S)(S)c1ccccc1 (stereo not given)
inactive: [1] > 100 µM | [2] > 100 µM | [3] > 100 µM | [4] > 100 µM | [5] > 100 µM | [16] > 100 µM | [8] > 100 µM | [9] > 100 µM | [10] > 100 µM | [17] > 100 µM | [11] > 100 µM | [12] > 100 µM | [13] > 100 µM | [14] > 100 µM | [15] > 100 µM
